Experimental data as given in patent EP4722219A1 (Gan & Lee Pharmaceuticals Co., Ltd., priority 2023, dated 2024).

Assays:
Type in all cases: cell-based
[1] = tested on: T-47D cells; experiment: Inhibition of cell proliferation in T-47D cells (CCK-8); conditions: 6 days treatment, CCK-8 cell viability
Method: Test Example 2 Inhibitory effect of PROTAC compounds provided by the present invention on cell proliferation in T-47D cells
The complete culture medium required for T-47D cells is 1640 (ATCC, Product number: A10491-01) basal culture medium containing 10% fetal bovine serum. T-47D cells were seeded in 96-well plates at a density of 3,000 cells/well, and different concentrations of PROTAC compounds 1-55 provided in the examples of the present invention and positive control sample ARV-471 (source: Inokai) were prepared to treat the cells and incubated at 37 °C, 5% CO2 cell culture incubator for 6 days. According to the manufacturer's instructions, cell viability was detected using a CCK-8 kit (Beyotime, Product number: C0040). The IC50 of each compound after treating for 6 days was calculated using GraphPadPrism software based on the inhibition rate. Table 2 Inhibition IC50 value of T-47D cell proliferation by PROTAC compounds provided by the present invention and positive control sample

[2] = biological target: T1, ERα (Homo sapiens, UniProt P03372); experiment: ERα degradation in MCF-7 cells (Western blot); parameters: host or cells: MCF-7; conditions: 4 hours
T1 sequence (P03372 1-595): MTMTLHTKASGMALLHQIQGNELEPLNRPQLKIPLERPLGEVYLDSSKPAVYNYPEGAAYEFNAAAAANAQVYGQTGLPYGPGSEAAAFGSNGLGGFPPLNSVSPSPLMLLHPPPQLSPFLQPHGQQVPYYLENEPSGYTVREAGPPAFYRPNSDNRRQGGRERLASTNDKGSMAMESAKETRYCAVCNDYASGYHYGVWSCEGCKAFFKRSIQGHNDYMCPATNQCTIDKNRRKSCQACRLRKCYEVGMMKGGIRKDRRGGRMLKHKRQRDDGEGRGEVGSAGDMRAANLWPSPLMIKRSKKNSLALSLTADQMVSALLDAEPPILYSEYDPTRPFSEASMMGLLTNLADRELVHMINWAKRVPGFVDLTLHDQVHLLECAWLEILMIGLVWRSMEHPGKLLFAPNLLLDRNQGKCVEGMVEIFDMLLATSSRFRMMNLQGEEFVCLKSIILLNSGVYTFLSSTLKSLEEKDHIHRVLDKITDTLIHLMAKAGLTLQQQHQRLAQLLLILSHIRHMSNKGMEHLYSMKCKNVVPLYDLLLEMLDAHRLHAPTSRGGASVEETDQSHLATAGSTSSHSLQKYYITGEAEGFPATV
Method: Test Example 4 Effect of PROTAC Compounds Disclosed in the Present Invention on ERα Degradation in MCF-7 Cells
MCF-7 (ATCC) cells were cultured in DMEM medium (11995-065, Gibco) containing 10% FBS (10099141C, Gibco) at 37°C and 5% CO2 until they entered the logarithmic growth phase. MCF-7 cells were plated at a density of 3×10^5 cells/well in a 6-well plate and incubated at 37°C, 5% CO2 for 24 hours. After cell attachment, 1µL of compound in dimethyl sulfoxide (final concentration 0.15-1000nM) was added and incubated for another 4 hours at 37°C, 5% CO2 incubator. After 4 hours, the culture medium was discarded, and each well was washed once with 1 mL of pre-chilled 1× DPBS. The cells were then lysed with 50 µL of RIPA lysis buffer (P0013B, Beyotime) and 1× protease inhibitor cocktail (P1005, Beyotime). After incubation on ice for 20 minutes, the cells were centrifuged at 14,000 g at 4°C for 30 minutes. The supernatant was carefully collected and analyzed for ERα protein levels by immunoblotting.
(§1) Western blotting: The total protein concentration in the collected cell lysate supernatant was determined using the BCA protein concentration assay kit (enhanced) (P0009, Beyotime). Based on the total protein concentration determined by BCA, the protein concentration was adjusted to 1 µg/µL using RIPA lysis buffer and 5× SDS-PAGE protein loading buffer (MB01015, GenScript). The protein was denatured in a 95°C water bath for 5 minutes. After denaturation, the condensed water on the tube wall was collected by centrifugation and used as the loading sample. 20µL of the loading sample (20 µg of total protein) was added to the sample well of a 12% precast gel (M00669, GenScript). Electrophoresis was performed at 100 V for 20 minutes, followed by switching to 150 V for 40 minutes. After electrophoresis, the proteins from the SDS-PAGE gel were transferred to a PVDF membrane at a constant voltage of 100 V for 60 minutes. After transfer, the PVDF membrane corresponding to the ERα protein and internal reference protein was cut and incubated in 1× QµickBlock blocking buffer (P0252, Beyotime) for 30 minutes at room temperature on a shaker. After blocking, the ERα primary antibody (1:1000, 8644S, CST) was added and incubated overnight at 4°C on a shaker. The PVDF membrane was washed three times with 1× TBST buffer for 5 minutes each. Rabbit IgG (H+L) secondary antibody (1:7500, SA5-35571, Invitrogen) was added and incubated for 1 hour at room temperature on a shaker. The membrane was then washed again three times with 1× TBST buffer for 5 minutes each. Finally, the membrane was imaged using a dual-color infrared laser imaging system (Odyssey DLx, LICOR). Protein maps were analyzed for grayscale value using Image Studio Lite software. The grayscale correction value for each sample was calculated using the formula: grayscale correction value = grayscale value of the target protein / grayscale value of the corresponding internal reference. Then the grayscale correction values of the compound group and the control group were compared to calculate the degradation rate of the compound. Table 4 Degradation rate of ERα by PROTAC compounds of the present invention and positive control in MCF-7 cells (%)

[3] = biological target: T1, ERα; experiment: ERα degradation in T-47D cells (Western blot); conditions: 4 hours
Method: as §1
Test Example 5 Degradation of ERα by the PROTAC compounds disclosed in the present invention in T-47D cells
T-47D (ATCC) cells were cultured in PRMI-1640 medium (30-2001, ATCC) containing 10% FBS (10099141C, Gibco) at 37°C and 5% CO2 until they entered the logarithmic growth phase. T-47D cells were seeded at a density of 3×10^5 cells/well in a 6-well plate and incubated at 37°C, 5% CO2 for 24 hours. After cell attachment, 1 µL of compound dimethyl sulfoxide solution (final concentration 0.15-1000 nM) was added and incubated for another 4 hours at 37°C, 5% CO2 incubator. After 4 hours, the culture medium was discarded, and each well was washed once with 1 mL of pre-chilled 1× DPBS. The cells were then lysed with 50 µL of RIPA lysis buffer (P0013B, Beyotime) and 1× protease inhibitor cocktail (P1005, Beyotime). After incubation on ice for 20 minutes, the cells were centrifuged at 14,000 g at 4°C for 30 minutes. The supernatant was carefully collected and analyzed for ERα protein levels by immunoblotting. Table 5 Degradation rate of ERα by PROTAC compounds of the present invention and positive control sample in T-47D cells (%)

[4] = tested on: MCF-7 cells; experiment: Inhibition of cell proliferation in MCF-7 cells (CCK-8); conditions: MCF-7 cell proliferation, 6 days treatment
Method: Test Example 3 Inhibitory effect of PROTAC compounds provided by the present invention on cell proliferation in MCF-7 cells
The complete culture medium required for MCF-7 cells (source ATCC) is DMEM (gibco, Product number: 11995-065) basal culture medium containing 10% fetal bovine serum. MCF-7 cells were seeded in 96-well plates at a density of 800 cells/well, and different concentrations of PROTAC compounds 1-55 provided in the examples of the present invention and positive control sample ARV-471 (source: Inokai) were prepared to treat the cells and incubated at 37 °C, 5% CO2 cell culture incubator for 6 days. According to the manufacturer's instructions, cell viability was detected using a CCK-8 kit (Beyotime, Product number: C0040). The IC50 of each PROTAC compound after treating for 6 days was calculated using GraphPadPrism software based on the inhibition rate. Table 3 Inhibition IC50 value of MCF-7 cell proliferation by PROTAC compounds of the present invention and positive control sample

Q: Which results are given for `O=C1CCC(Nc2ccc3c(c2)OC[C@@H]2CN(C4CC5(CCN(c6ccc([C@@H]7c8ccc(O)cc8CC[C@@H]7c7ccccc7)cc6)CC5)C4)CCN32)C(=O)N1` (stereo partly shown) [ER-P-35]?
A: IC50 ([1]; Homo sapiens, T47D, 144 h): 22.7 nM; Degradation rate of ERα in MCF-7 cells (%) ([2]; 1nM): 6%; Degradation rate of ERα in MCF-7 cells (%) ([2]; 10nM): -3%; Degradation rate of ERα in T-47D cells (%) ([3]; 1nM): 21%; Degradation rate of ERα in T-47D cells (%) ([3]; 10nM): 21%; IC50 ([4]; Homo sapiens, MCF7, 144 h): 876 nM

Q: For “(S)-N-((S)-2,6-dioxopiperidin-3-yl)-3-(((1S,4R)-4-((1-(4-((1R,2S)-6-hydroxy-2-phenyl-1,2,3,4-tetrahydronaphthalen-1-yl)phenyl)piperidin-4-yl)oxy)cyclohexyl)methy l)-1,2,3,4,4a,5-hexahydrobenzo[b]pyrazi no[1,2-d][1,4]oxazine-8-carboxamide [ER-P-47]”, which IC50 [1] is on record?
A: The IC50 was 1.47 nM.

Q: What about the “Degradation rate of ERα in MCF-7 cells (%)” value ([2]; 1nM) of the same compound?
A: Its value is 21%.

Q: And the “Degradation rate of ERα in MCF-7 cells (%)” value ([2]; 10nM)?
A: Its value is 26%.

Q: And the “Degradation rate of ERα in T-47D cells (%)” value ([3]; 1nM)?
A: The value was -14%.

Q: What about the “Degradation rate of ERα in T-47D cells (%)” value ([3]; 10nM) of the same compound?
A: The value was 25%.

Q: And the IC50 [4]?
A: Its IC50 is 8430 nM.

Q: How did the IC50 ([1]; Homo sapiens, T47D, 144 h) turn out when `O=C1CCC(N2Cc3c(ccc4c3OCC43CCC4(CC3)CN(CC3CCN(c5ccc([C@@H]6c7ccc(O)cc7CC[C@@H]6c6ccccc6)cc5)CC3)C4)C2=O)C(=O)N1` (stereo partly drawn) [ER-P-23, 3-(1-((1-(4-((1R,2S)-6-hydroxy-2-phenyl-1,2,3,4-tetrahydronaphthalen-1-yl)phenyl)piperidin-4-yl)methyl)-6"-oxo-6",8"-dihydro-2"H,7"H-di(pyridyl)furan[azetidine-3,1'-cyclohexane-4',3"-furo[2,3-e]isoindol]-7"-yl)piperidine-2,6-dione] was run?
A: Its IC50 is 1.61 nM.

Q: What about the “Degradation rate of ERα in MCF-7 cells (%)” value ([2]; 1nM) of the same compound?
A: The value was 26%.

Q: What about the “Degradation rate of ERα in MCF-7 cells (%)” value ([2]; 10nM) of the same compound?
A: Its value is 48%.

Q: And the “Degradation rate of ERα in T-47D cells (%)” value ([3]; 1nM)?
A: Its value is 40%.

Q: What about the “Degradation rate of ERα in T-47D cells (%)” value ([3]; 10nM) of the same compound?
A: The value was 67%.

Q: And the IC50 ([4]; Homo sapiens, MCF7, 144 h)?
A: The IC50 was < 0.256 nM.

Q: How did the IC50 ([1]; Homo sapiens, T47D, 144 h) turn out when `O=C1CCC(NC(=O)c2cc3c(cc2F)OC2(CC3)CCN(CC3CCC(OC4CCN(c5ccc(C6c7ccc(O)cc7CCC6c6ccccc6)cc5)CC4)CC3)CC2)C(=O)N1` [ER-P-89, N-((S)-2,6-dioxopiperidin-3-yl)-7-fluoro-1'-(((1S,4s)-4-((1-(4-((1R,2S)-6-hydroxy-2-phenyl-1,2,3,4-tetrahydronaphthalen-1-yl)phenyl)piperidin-4-yl)oxy)cyclohexyl)methyl)spiro[chromane-2,4'-piperidine]-6-carboxamide] was run?
A: Its IC50 is 104 nM.

Q: What about the IC50 ([4]; Homo sapiens, MCF7, 144 h) of the same compound?
A: The IC50 was 2740 nM.

Q: How did the IC50 [1] turn out when `Cn1c(=O)n(C2CCC(=O)NC2=O)c2cc3c(cc21)OC1(CC3)CCN(CC2CC(OC3CCN(c4ccc([C@@H]5c6ccc(O)cc6CC[C@@H]5c5ccccc5)cc4)CC3)C2)CC1` (stereo partly drawn) [ER-P-81, 3-(1'-(((1S,3s)-3-((1-(4-((1R,2S)-6-hydroxy-2-phenyl-1,2,3,4-tetrahydronaphthalen-1-yl)phenyl)piperidin-4-yl)oxy)cyclobutyl)methyl)-3-methyl-2-oxo-2,3,7,8-tetrahydro-1H-spiro[chromeno[6,7-d]imidazole-6,4'-piperidin]-1-yl)piperidine-2,6-dione] was run?
A: The IC50 was 2.57 nM.

Q: And the IC50 [4]?
A: Its IC50 is 1.6 nM.

Q: `O=C1CC[C@H](NC(=O)c2cc3c(cc2F)OCC32CCN(CC3CCC(OC4CCN(c5ccc([C@@H]6c7ccc(O)cc7CC[C@@H]6c6ccccc6)cc5)CC4)CC3)CC2)C(=O)N1` (stereo partly drawn) [ER-P-83, N-((S)-2,6-dioxopiperidin-3-yl)-6-fluoro-1'-(((1S,4R)-4-((1-(4-((1R,2S)-6-hydroxy-2-phenyl-1,2,3,4-tetrahydronaphthalen-1-yl)phenyl)piperidin-4-yl)oxy)cyclohexyl)methyl)-2H-spiro[benzofuran-3,4'-piperidine]-5-carboxamide] was tested. Which IC50 [1] did it give?
A: Its IC50 is 138 nM.

Q: What about the IC50 [4] of the same compound?
A: The IC50 was 4330 nM.

Q: With “N-((S)-2,6-dioxopiperidin-3-yl)-6'-fluoro-1-(((1 S,4R)-4-((1-(4-((1R,2S)-6-hydroxy-2-phenyl-1,2,3,4-tetrahydronaphthalen-1-yl)phenyl)piperidin-4-yl)oxy)cyclohexyl)methy l)spiro[azetidine-3,2'-chromane]-7'-carboxamide [ER-P-85]” as the compound, how does the IC50 [1] read?
A: Its IC50 is 70.9 nM.

Q: And the IC50 [4]?
A: The IC50 was 956 nM.

Q: How did the IC50 ([1]; Homo sapiens, T47D, 144 h) turn out when `CN(CC(=O)N1CCC2(CC1)COc1c2ccc2c1n(C)c(=O)n2C1CCC(=O)NC1=O)CC1CCN(c2ccc([C@@H]3c4ccc(O)cc4CC[C@@H]3c3ccccc3)cc2)CC1` (stereo partly drawn) [ER-P-75, 3-(1'-(N-((1-(4-((1R,2S)-6-hydroxy-2-phenyl-1,2,3,4-tetrahydronaphthalen-1-yl)phenyl)piperidin-4-yl)methyl)-N-methylglycyl)-1-methyl-2-oxo-1,2-dihydro-3H,7H-spiro[benzofuro[6,7-d]imidazole-6,4'-piperidin]-3-yl)piperidine-2,6-dione] was run?
A: The IC50 was 1.16 nM.

Q: What about the IC50 ([4]; Homo sapiens, MCF7, 144 h) of the same compound?
A: Its IC50 is 3000 nM.
